The text below walks through data of ChEMBL document CHEMBL1141632, “Synthesis and evaluation of novel 3,4,6-substituted 2-quinolones as FMS kinase inhibitors” (Bioorg Med Chem Lett, 2008).

Active and inactive are the calls of the source. The calls are words filed in the database; no cut-off is given here. Bounds are passed on as bounds.

The target in data set [1] is T1, Macrophage colony-stimulating factor 1 receptor (Homo sapiens, UniProt P07333). Nature of the data set: Inhibition of human cytoplasmic macrophage colony-stimulating factor 1 receptor at 5 uM by fluorescence polarization.
A short description of data set [2]: Inhibition of CSF1-induced human BMDM cell proliferation. Format: functional, cell-based.
Data set [3] addresses Platelet-derived growth factor receptor beta (Homo sapiens, UniProt P09619). Nature of the data set: Inhibition of PDGFRbeta.
Data set [4] has as its target Mast/stem cell growth factor receptor Kit (Homo sapiens, UniProt P10721). Nature of the data set: Inhibition of KIT.
Data set [5] deals with T2, Receptor-type tyrosine-protein kinase FLT3 (Homo sapiens, UniProt P36888).
T2 sequence (P36888 whole entry): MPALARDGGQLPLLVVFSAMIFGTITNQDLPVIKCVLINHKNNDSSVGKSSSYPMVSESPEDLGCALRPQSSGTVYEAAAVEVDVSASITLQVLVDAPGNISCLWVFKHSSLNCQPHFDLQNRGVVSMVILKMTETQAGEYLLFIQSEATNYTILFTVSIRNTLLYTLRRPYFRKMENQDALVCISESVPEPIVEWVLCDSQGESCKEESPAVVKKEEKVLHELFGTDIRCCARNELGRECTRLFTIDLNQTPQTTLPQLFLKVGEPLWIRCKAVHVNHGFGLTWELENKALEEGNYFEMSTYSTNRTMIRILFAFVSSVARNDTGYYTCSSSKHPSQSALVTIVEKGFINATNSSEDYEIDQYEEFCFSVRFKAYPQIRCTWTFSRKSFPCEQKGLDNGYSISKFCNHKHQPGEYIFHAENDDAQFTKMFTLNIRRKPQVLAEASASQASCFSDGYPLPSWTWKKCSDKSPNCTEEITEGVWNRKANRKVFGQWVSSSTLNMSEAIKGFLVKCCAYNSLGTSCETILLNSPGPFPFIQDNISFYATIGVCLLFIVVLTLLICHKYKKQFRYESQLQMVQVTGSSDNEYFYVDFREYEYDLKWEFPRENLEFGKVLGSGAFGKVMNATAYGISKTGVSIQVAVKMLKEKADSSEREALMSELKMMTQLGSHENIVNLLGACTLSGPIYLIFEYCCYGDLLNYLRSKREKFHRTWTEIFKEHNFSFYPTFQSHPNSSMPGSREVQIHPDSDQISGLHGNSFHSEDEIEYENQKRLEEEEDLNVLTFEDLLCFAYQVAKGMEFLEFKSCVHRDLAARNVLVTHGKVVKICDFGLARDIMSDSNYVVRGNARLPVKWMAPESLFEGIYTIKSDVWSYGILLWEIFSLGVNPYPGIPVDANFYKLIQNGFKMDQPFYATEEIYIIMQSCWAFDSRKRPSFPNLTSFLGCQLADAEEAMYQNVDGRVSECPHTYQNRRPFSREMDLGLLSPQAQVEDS
Nature of the data set: Inhibition of FLT3.

Data set [6] concerns the target T1, Macrophage colony-stimulating factor 1 receptor. Nature of the data set: Inhibition of human cytoplasmic macrophage colony-stimulating factor 1 receptor by fluorescence polarization.
The nature of data set [7]: Cmax in rat at 2 mg/kg, iv and 10 mg/kg, po. Format: ADME, organism-based. As to conditions: in vivo.
A short description of data set [8]: Volume of distribution in rat at 2 mg/kg, iv and 10 mg/kg, po. Format: ADME, organism-based. The conditions noted are these: in vivo.
Data set [9] is described as follows: Half life in rat at 2 mg/kg, iv and 10 mg/kg, po. Type of data set: ADME, organism-based. As to conditions: in vivo.
The nature of data set [10]: Clearance in rat at 2 mg/kg, iv and 10 mg/kg, po. Type of data set: ADME, organism-based. The conditions noted are these: in vivo.
Data set [11] can be described thus: Oral bioavailability in rat at 10 mg/kg. Format: ADME, organism-based. As to conditions: in vivo.
In data set [12] the test system is Mus musculus. Nature of the data set: Inhibition of FMS in B6C3F1 mouse assessed as reduction in CSF1-induced C-fos levels at 5 mg/kg, po. Format: functional, organism-based. Details: dose 5 mg/kg.
The subject of data set [13] is Mus musculus. Nature of the data set: Inhibition of FMS in B6C3F1 mouse assessed as reduction in CSF1-induced C-fos levels at 20 mg/kg, po. Type of data set: functional, organism-based. More on the design: dose 20 mg/kg.
Data set [14] has as its system Mus musculus. Nature of the data set: Inhibition of FMS in B6C3F1 mouse assessed as reduction in CSF1-induced C-fos levels at 50 mg/kg, po. Format: functional, organism-based. More on the design: dose 50 mg/kg.

T1 sequence (P07333 whole entry): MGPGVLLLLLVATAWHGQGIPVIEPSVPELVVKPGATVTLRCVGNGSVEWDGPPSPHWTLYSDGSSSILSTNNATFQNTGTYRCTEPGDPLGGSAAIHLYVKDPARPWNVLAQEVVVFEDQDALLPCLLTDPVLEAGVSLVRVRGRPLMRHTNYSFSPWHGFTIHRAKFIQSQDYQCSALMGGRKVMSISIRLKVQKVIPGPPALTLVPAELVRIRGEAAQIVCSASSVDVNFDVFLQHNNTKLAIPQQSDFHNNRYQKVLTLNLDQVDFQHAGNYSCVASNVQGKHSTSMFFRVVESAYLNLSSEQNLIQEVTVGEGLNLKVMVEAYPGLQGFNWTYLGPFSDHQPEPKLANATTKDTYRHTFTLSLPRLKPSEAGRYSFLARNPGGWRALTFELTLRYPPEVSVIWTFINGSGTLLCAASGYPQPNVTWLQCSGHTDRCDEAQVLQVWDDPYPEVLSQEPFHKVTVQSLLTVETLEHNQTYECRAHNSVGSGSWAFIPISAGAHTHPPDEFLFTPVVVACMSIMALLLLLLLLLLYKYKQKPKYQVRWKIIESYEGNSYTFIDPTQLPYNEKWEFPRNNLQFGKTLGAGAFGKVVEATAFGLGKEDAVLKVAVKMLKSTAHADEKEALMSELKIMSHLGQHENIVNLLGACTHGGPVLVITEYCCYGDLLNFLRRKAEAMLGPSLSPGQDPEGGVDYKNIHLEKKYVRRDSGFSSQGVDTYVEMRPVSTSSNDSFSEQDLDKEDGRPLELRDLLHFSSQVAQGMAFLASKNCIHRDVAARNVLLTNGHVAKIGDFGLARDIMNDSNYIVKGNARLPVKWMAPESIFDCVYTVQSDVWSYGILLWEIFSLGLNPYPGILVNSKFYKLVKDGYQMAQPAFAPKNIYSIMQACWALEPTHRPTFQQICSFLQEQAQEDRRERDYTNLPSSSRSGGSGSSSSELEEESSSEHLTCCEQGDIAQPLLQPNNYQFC
Mast/stem cell growth factor receptor Kit, sequence (P10721 whole entry): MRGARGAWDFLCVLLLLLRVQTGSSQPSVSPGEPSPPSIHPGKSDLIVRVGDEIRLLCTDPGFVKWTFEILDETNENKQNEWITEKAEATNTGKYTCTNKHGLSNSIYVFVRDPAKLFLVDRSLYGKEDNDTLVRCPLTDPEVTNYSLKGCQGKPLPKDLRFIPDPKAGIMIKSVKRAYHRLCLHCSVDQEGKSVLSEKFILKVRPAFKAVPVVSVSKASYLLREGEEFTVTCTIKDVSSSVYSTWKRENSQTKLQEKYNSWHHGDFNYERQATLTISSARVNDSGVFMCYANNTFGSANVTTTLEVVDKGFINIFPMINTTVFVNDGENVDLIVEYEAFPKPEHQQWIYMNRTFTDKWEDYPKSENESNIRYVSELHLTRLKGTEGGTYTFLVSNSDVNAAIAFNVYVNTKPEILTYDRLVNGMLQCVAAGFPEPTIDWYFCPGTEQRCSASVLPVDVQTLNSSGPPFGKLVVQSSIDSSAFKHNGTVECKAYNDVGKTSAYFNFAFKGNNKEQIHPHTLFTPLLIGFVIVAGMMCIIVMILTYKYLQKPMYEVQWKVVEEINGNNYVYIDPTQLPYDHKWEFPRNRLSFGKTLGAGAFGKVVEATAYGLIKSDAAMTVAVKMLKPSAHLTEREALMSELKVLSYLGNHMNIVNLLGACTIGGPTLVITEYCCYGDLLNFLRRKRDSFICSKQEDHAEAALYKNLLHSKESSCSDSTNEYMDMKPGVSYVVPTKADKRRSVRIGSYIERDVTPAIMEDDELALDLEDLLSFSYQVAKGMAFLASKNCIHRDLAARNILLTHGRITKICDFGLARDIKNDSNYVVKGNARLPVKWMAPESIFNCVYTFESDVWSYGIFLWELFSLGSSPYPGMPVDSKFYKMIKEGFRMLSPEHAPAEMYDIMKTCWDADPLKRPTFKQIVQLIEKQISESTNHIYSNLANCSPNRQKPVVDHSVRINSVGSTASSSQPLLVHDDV
Platelet-derived growth factor receptor beta, sequence (P09619 whole entry): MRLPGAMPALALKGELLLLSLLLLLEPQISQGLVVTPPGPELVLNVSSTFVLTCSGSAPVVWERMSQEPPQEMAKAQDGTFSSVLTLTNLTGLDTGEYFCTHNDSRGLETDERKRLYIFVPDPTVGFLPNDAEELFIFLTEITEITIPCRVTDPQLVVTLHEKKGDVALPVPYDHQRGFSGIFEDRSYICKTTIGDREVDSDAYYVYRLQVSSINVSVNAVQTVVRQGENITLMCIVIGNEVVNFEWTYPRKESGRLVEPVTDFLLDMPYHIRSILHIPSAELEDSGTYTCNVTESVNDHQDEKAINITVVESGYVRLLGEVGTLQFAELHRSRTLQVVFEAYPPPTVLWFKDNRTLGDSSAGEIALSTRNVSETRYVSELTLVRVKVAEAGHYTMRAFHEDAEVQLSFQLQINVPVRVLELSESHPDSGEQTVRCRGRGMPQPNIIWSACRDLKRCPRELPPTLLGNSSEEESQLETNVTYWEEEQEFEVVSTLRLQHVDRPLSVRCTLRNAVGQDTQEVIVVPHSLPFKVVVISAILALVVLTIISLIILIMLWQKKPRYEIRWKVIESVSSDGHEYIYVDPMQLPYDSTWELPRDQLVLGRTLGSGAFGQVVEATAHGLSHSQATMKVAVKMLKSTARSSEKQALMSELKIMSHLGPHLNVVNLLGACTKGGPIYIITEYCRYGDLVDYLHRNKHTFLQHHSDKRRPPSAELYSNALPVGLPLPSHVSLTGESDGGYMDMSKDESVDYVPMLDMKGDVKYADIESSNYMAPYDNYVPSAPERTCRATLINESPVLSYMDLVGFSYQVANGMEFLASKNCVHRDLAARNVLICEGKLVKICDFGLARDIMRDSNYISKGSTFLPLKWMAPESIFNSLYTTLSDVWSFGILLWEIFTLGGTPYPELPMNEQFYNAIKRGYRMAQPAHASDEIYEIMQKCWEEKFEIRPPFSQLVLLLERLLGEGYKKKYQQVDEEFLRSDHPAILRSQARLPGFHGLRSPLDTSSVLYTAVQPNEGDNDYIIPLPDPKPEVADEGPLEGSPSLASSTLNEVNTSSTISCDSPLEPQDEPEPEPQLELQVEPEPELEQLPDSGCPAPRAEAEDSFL

`Cc1cc(-c2c(-c3ccccc3)c3cnccc3[nH]c2=O)on1` gave an inhibition in data set [1] of 8%.
With `CCc1ccc(-c2c(-c3cnc(C)[nH]3)c(=O)[nH]c3ccc(Cl)cc23)cc1`, the IC50 in [2] is 28 nM; in [3], above 1000 nM; in [4], 67 nM; in data set [5] it was 34 nM.
For the compound `Cc1cc(-c2c(-c3ccccc3)c3cc(N)ccc3[nH]c2=O)on1`, the IC50 in data set [6] is above 5 µM.
On the same count and under the same terms, then `Cc1cc(-c2c(-c3ccccc3)c3ccccc3[nH]c2=O)on1`, with above 5 µM.
As to `CCc1ccc(-c2c(-c3c[nH]c(C)n3)c(=O)[nH]c3ccc(C#N)cc23)cc1`, in data set [7], the Cmax came to 317 ng/mL. Also, the IC50 in data set [3] was above 1000 nM; in [4], 170 nM; in data set [5] it was 47 nM. Moreover, in data set [8], the Vd is 8.6 L/kg. The compound further gave a half-life in data set [9] of 64 min. In data set [10], the clearance amounted to 93 mL/min/kg. The compound also yielded a bioavailability in data set [11] of 56%.
On to `Cc1cc(-c2c(-c3ccccc3)c3ncccc3[nH]c2=O)on1`, for which the IC50 in data set [6] was above 20 µM.
In data set [2], `CCc1ccc(-c2c(-c3cnc(C)[nH]3)c(=O)[nH]c3ccc(C#N)cc23)cc1` had an IC50 of 5 nM. In addition, the outcome with Mus musculus [12], with Mus musculus [13] and in the data set on Mus musculus [14] was Active.
